Assay results from ChEMBL document CHEMBL5357054, “Expanding the Chemical Diversity of Grisechelins via Heterologous Expression” (2024).
In brackets after ≈: the same amount, converted by molar mass. Activity calls are given as the source filed them. The rule behind the calls is not given here.

What was measured:
[1] = tested on: Mycobacterium tuberculosis; assay: Antibacterial activity against autoluminescent Mycobacterium tuberculosis H37Ra by 7H9 broth based assay; assay type: functional
Acinetobacter baumannii = assay: Antibacterial activity against Acinetobacter baumannii ATCC 19606 incubated for 24 hrs by broth microdilution method; assay type: functional, organism-based
Staphylococcus aureus = assay: Antibacterial activity against methicillin resistant Staphylococcus aureus ATCC 43300 incubated for 24 hrs by broth microdilution method; assay type: functional, organism-based

| Structure (SMILES) | Activity [1] | Activity (Acinetobacter baumannii) | Activity (Staphylococcus aureus) | MIC [1] |
| --- | --- | --- | --- | --- |
| NC(=O)c1csc(-c2csc(-c3nc4ccccc4c(Cl)c3O)n2)n1 | inactive | inactive | inactive | – |
| NC(=O)[C@@H]1CSC(c2csc(-c3nc4ccc(Cl)cc4cc3O)n2)=N1 | inactive | inactive | inactive | – |
| NC(=O)c1nc2ccc(Cl)cc2c(Cl)c1O | inactive | inactive | inactive | – |
| NC(=O)[C@@H]1CSC(c2csc(-c3nc4ccccc4cc3O)n2)=N1 | inactive | inactive | inactive | – |
| O=C(OCc1csc(-c2nc3ccc(Cl)cc3c(Cl)c2O)n1)c1ccccc1O | inactive | inactive | inactive | – |
| OCc1csc(-c2nc3ccc(Cl)cc3c(Cl)c2O)n1 | – | – | – | 8 µg/mL (≈ 24.5 µM) |
| OCc1csc(-c2nc3ccccc3c(Cl)c2O)n1 | inactive | inactive | inactive | – |
| CC(=O)/C=C/c1csc(-c2nc3ccc(Cl)cc3c(Cl)c2O)n1 | inactive | inactive | inactive | – |
| OCc1csc(-c2nc3ccccc3cc2O)n1 | inactive | inactive | inactive | – |
| O=C(O)c1nc2ccc(Cl)cc2cc1O | inactive | inactive | inactive | – |
